Here are results for seven compounds from patent US9345789B2, “Specific inhibitors and active site probes for legumain” (The Board of Trustees of the Leland Stanford Junior …, priority 2009, dated 2016).

“And” between values parts separate entries of the source, which are not always exact repeats. Identical values can stand only once. Like-named read-outs stand apart in the source and are kept apart here.

The target in one experiment is cathepsin L (Homo sapiens (Human), UniProt P07711). Put plainly: Inhibition of cathepsin L, fluorogenic substrate Cbz-Phe-Arg-AMC.
In a further experiment the target is cathepsin B (Homo sapiens (Human), UniProt P07858). Put plainly: Inhibition of cathepsin B, fluorogenic substrate Cbz-Phe-Arg-AMC.
Another experiment concerns the target recombinant legumain (Homo sapiens (Human), UniProt Q99538). The experiment is described as follows: Inhibition of recombinant legumain, fluorogenic substrate Cbz-Ala-Ala-Asn-AMC. Conditions: for IC50: at 60 min. Type of experiment: biochemical. As to the method:
(§1) Assay buffers consist of 20 mM citric acid, 60 mM disodium hydrogen orthophosphate, 1 mM EDTA, 0.1% CHAPS, 4 mM DTT, pH 5.8 for legumain, 50 mM dihydrogen sodium orthophosphate, 1 mM EDTA, 5 mM DTT, pH 6.25 for cathepsin B and cathepsin Land 100 mM Tris, 0.1% CHAPS, 10% sucrose, 10 mM DTT, pH 7.4 for caspase-3.
Second-order inhibition rate constants were determined by following the previously described method in the literature (6). The pseudo-first-order rate constants (kobs) were obtained from plots of In vJ Vo versus time where Vo is the rate of hydrolysis of fluorogenic substrate and Vt is the rate of hydrolysis of substrate in the presence of the inhibitor. The second-order inhibition rate constants were calculated using the following equation. Second order rate constant=(kobs1[I])(1+[S]/Km)

A further experiment deals with caspase-3 (Homo sapiens (Human), UniProt P42574). Put plainly: Inhibition of caspase-3, Caspase-3 Substrate VII. Conditions: read-out: Caspase-3 IC50; at 30 min.
In experiment [1] the test system is caspase 3, cathepsin B or cathepsin L. The experiment is described as follows: Selectivity: inhibition of enzymes other than legumain. Format: biochemical. Conditions: for inhibitory effect against other enzymes: even at millimolar concentrations. How it is done: Disclosed below are activity based probes, i.e., they only label active enzyme. The probes are specific for legumain, and may be used to inhibit or inhibit and label active enzyme in situ. […] It may be said, for example, the activity towards legumain will be on the order of at least 3 times greater for legumain than caspase 3, cathepsin B or cathepsin L, preferably at least 10 times greater, and even 100 times greater.
as §1

In experiment [2] the target is T1, legumain (Mus musculus (Mouse), UniProt O89017). The experiment is described as follows: Labeling of active legumain in intact NIH-3T3 fibroblasts (SDS-PAGE, Cy5 scan). Type of experiment: cell-based. An excerpt:
(§2) We treated intact NIH-3T3 and RAW 264.7 cells with LP-1 and LP-O respectively and monitored protein labeling using SDS-PAGE followed by scanning of the gel to detect the Cy5 fluorescence (FIG. 2). […] The identity of these off targets as cathepsins was confirmed by pre-treatment of cells with the broad-spectrum cathepsin inhibitor JPM-OEt (21) and further verified by immunoprecipitation (FIG. 16). Although some degree of cross reactivity of AOMK probes towards cathepsins has been reported (15), attempts to inhibit cathepsins with various aza-epoxide inhibitors have been unsuccessful (22). Therefore, the labeling of cathepsins by LP-I was particularly surprising. […] Furthermore, when cells were pre-treated with legumain inhibitors we observed more intense cathepsin labeling. This could be explained by the fact that cathepsins are known to be substrates for legumain (3, 23), thus legumain inhibition could result in increased levels of cathepsins and therefore increased non-specific labeling by the legumain probes.
(§3) RAW 264.7 cells (250,000 cells/well) and NIH-3T3 cells (200,000 cells/well) were seeded in a 24 well plate 24-30 hrs prior to labeling. Cells were pre-treated with appropriate inhibitors for 1.5 hrs and labeled by addition of each probe for 1 hrs; the final DMSO concentration was maintained less than 0.2%. Cells were washed with PBS buffer and lysed by addition of sample buffer. Crude lysates were collected and separated by 12.5% SDS-PAGE. Labeled proteins were analyzed by scanning the gel with a Typhoon flatbed laser scanner (ex. 633 nM/em. 680 nM). For lysates labeling, cytosolic lysates of RAW 264.7 cells were prepared as previously described (29). Lysates were diluted to 1 mg/ml in 50 mM citrate phosphate buffer (pH 4.5), 0.1% CHAPS, 5 mM DTT and subjected to direct labeling. 25˜L of lysates samples were pre-treated with inhibitors for 30 min and labeled with probes for another 30 min. The labeled samples were separated by 12.5% SDS-PAGE and analyzed by scanning the gel with a Typhoon flatbed scanner.
Target sequence in this assay (O89017 18-325): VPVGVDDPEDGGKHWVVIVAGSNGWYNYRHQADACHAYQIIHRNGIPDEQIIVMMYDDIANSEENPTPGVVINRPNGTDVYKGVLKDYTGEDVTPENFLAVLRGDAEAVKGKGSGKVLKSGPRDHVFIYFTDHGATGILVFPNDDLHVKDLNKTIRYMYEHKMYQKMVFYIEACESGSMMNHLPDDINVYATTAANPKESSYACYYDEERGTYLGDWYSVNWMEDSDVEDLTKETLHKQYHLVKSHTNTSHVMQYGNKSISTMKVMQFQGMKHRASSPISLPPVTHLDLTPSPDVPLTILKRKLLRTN

Experiment [3] has as its system cathepsins. The experiment is described as follows: Off-target labeling of cathepsins in intact RAW 264.7 macrophages. Conditions: for cross reactivity towards lysosomal cathepsins: intact RAW 264.7 macrophages; for labeling of cathepsins: high concentrations. Type of experiment: cell-based. How it is done: Immunoprecipitation of cathepsins in intact raw 264.7 cells. […] High concentration of LP-1 was used to bring out all the off-target labeling in intact cells.
RAW 264.7 macrophages (600,000 cells/well) were seeded in a 6 well plate 24 hrs prior to labeling. […] High concentration of LP-1 was used to bring out all the off-target labeling in intact cells. Cells were washed with PBS buffer and lysed by addition of citrate-phosphate lysis buffer (50 mM citrate-phosphate, 1% CHAPS, 0.5% Triton, 5 mM DTT, pH 4.5). 20 μL of crude lysates were diluted to […] in RIPA buffer (phosphate-buffered saline, 0.5% NP-40, 1 mM EDTA, pH 7.4). Anti-mouse cathepsin B (E Weber Halle), anti-mouse cathepsin L (R&D Systems), anti-goat cathepsin S (Abchem) and anti-human cathepsin S (R&D Systems) were added and mixed for 15 mM at 0° C. 40 μL of Protein A/G Plus Agarose beads (Santa Cruz Biotechnology) were added and mixed overnight at 4° C. Samples were spun down and supernatant and beads were separated. Beads were washed with RIPA buffer and boiled after addition of sample buffer 2× (20% glycerol, 100 mM Tris HCl, pH 6.8, 6% SDS, and 10% b-mercaptoethanol). Acetone was added to the supernatant and kept at −80° C. for 2 h. Precipitated proteins were collected by centrifugation in the cold for 30 min, dried, and dissolved by boiling in sample buffer. Samples without immunoprecipitation (input), pellets (P) and supernatant (S) were separated on a 12.5% SDS-PAGE and visualized by scanning of the gel with a Typhoon flatbed laser scanner (excitation/emission 633/680 nm).
as §2, with “This could be explained by the fact that cathepsins are known to be substrates for legumain (3, 23), thus legumain inhibition could result in increased levels of cathepsins and therefore increased non-specific labeling by the legumain probes.” left out
RAW 264.7 cells (250,000 cells/well) and NIH-3T3 cells (200,000 cells/well) were seeded in a 24 well plate 24-30 hrs prior to labeling. […] Labeled proteins were analyzed by scanning the gel with a Typhoon flatbed laser scanner (ex. 633 nM/em. 680 nM). […] The labeled samples were separated by 12.5% SDS-PAGE and analyzed by scanning the gel with a Typhoon flatbed scanner.

Experiment [4] concerns the target T1, legumain. Put plainly: Ex vivo imaging of organs and SDS-PAGE analysis of organ lysates. Format: in vivo, mice. How it is done:
(§4) In vivo/ex vivo imaging and SDS-PAGE analysis of organ lysates was conducted as follows: Tumor bearing mice were prepared by following the previously described method (24). C2C12/Hras1 or MDA-MB 231 MFP cells ([…]) were injected subcutaneously on 4-8 week old male BALB/c nude mice. 14 days after transplantation, each probe (25 nmol in 100˜L of sterile PBS) was injected via the tail vein into tumor-bearing mice. Mice were imaged at various time points after injection using the IVIS 200 imaging system equipped with a Cy5.5 filter. Relative fluorescence of equal-sized areas of tumor and background were measured using Living Image software (Caliper life science). Upon finishing the last time point of imaging, mice were anesthetized and sacrificed by cervical dislocation. Tumors, livers, kidneys and spleens were collected and imaged ex vivo by using the FMT 2500 with a Cy5 filter. After ex vivo imaging, organs were lysed by a dounce homogenizer in muscle lysis buffer (1% Triton X-100, 0.1% SDS, 0.5% sodium deoxycholate, 0.2% sodium azide in PBS, pH 7.2). Total protein extracts (100˜g each) were separated by SDS-PAGE and visualized by scanning the gel with a Typhoon flatbed laser scanner.
Target sequence in this assay (O89017 18-435): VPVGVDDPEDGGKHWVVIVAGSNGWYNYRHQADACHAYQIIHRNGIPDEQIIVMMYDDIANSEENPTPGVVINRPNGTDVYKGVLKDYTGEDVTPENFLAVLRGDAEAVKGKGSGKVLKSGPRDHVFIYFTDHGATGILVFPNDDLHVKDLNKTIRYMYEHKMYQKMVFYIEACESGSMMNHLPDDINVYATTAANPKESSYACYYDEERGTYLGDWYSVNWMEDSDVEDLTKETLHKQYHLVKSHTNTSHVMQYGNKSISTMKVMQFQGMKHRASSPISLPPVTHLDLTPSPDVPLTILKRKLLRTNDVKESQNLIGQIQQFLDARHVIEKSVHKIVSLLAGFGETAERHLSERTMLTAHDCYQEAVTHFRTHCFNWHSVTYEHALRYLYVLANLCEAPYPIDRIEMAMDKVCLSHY

Experiment [5] addresses T1, legumain. The experiment is described as follows: Direct labeling of legumain in RAW cell lysates. Type of experiment: biochemical. As to the method:
as §3
Target sequence in this assay (O89017 18-435): as above
We believe that this cross-reactivity results from increased lysosomal uptake and is not the result of a loss of specificity as the result of addition of the tat peptide. […] We also performed a competition assay by pre-treating RAW lysates with each probe and labeling with the general cathepsin probe, I^125_DCG04 (25).

The target of experiment [6] is T1, legumain. Put plainly: In vivo fluorescence imaging of mice bearing C2C12/ras xenograft tumors. Conditions: IV tail vein, 25 nmol probe. How it is done: In order to examine in vivo properties of LP-1 and monitor active legumain levels non-invasively, we performed imaging experiments using a simple tumor xenograft model (C2C 1 2/Hras 1)(24). […] Mice were injected with the probes via tail vein and fluorescent images were collected over the course of 5 hrs. […] Furthermore, the specific legumain signal was reduced to background levels after 120 min. This is in contrast to the previously reported cathepsin probes which only provide contrast after 8-12 hours and signals are retained beyond 48 hours.
as §4
Target sequence in this assay (O89017 18-435): as above

In experiment [7] the test system is cathepsins. Put plainly: Competitive inhibition of cathepsins in RAW cell lysates, labeled by 125I-DCG04. Conditions: competition with 125I-DCG04. Format: biochemical.
From the text: To test this hypothesis, we labeled RAW cell lysates with LP-1 and tLP-1 (FIG. 9).
Where [8] appears, read: read-out: Cathepsin L IC50, at 30 min.

cathepsin L, sequence (P07711 114-333, species assumed): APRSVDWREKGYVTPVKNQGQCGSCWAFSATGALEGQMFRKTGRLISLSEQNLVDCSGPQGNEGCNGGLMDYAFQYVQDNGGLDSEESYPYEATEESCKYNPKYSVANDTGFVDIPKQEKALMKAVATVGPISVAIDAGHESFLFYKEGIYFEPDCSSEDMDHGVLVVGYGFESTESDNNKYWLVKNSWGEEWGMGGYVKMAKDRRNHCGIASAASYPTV
recombinant legumain, sequence (Q99538 18-433, species assumed): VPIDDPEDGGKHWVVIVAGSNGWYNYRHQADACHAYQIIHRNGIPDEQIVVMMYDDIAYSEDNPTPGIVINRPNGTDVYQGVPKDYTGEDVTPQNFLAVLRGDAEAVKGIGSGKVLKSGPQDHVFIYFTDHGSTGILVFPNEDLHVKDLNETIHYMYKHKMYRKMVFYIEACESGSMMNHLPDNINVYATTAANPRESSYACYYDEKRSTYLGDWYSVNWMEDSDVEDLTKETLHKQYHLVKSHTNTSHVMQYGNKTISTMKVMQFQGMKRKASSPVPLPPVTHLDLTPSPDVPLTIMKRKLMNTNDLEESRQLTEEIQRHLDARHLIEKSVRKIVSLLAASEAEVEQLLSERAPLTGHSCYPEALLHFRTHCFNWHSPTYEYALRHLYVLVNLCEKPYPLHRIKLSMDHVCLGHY
caspase-3, sequence (P42574 29-175, species assumed): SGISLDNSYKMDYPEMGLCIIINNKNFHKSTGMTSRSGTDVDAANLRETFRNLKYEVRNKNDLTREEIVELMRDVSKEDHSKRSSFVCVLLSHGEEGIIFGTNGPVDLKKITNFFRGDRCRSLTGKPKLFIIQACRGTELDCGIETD
caspase-3, sequence (P42574 176-277, species assumed): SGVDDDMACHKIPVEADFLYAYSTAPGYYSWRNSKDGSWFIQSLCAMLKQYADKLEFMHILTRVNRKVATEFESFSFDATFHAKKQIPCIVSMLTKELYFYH
Method for caspase-3: Determination of IC50 against cysteine proteases and second order rate constants (kobs1[I]) for legumain Activity of legumain was measured with the fluorogenic substrate, Cbz-Ala-Ala-Asn-AMC (Anaspec), cathepsin B and cathepsin L was measured with Cbz-Phe-Arg-AMC (Bachem), and caspase-3 was measured with Caspase-3 Substrate VII (Calbiochem). […] The increase in fluorescence was continuously monitored every 30 see for 2.5 hrs with a Spectramax M5 fluorescent plate reader (Molecular Devices), and inhibition curves were recorded. […] ICso values with known broad-spectrum cathepsin inhibitor (JPM-OEt) and caspase-3 inhibitor (Z-DEVD-FMK) were also measured for comparison. All measurements were performed in triplicate and the average values were reported.

For `CCOC(=O)[C@H]1O[C@@H]1C(=O)N[C@@H](CC(C)C)C(=O)NCCc1ccc(O)cc1` [JPM-OEt, reference compound], the values for the IC50 against cathepsin L and against cathepsin B were 2.98 µM and 0.78 µM, respectively.
As to `CC(=O)N1CCC[C@H]1C(=O)N[C@@H](CC(=O)O)C(=O)COC(=O)c1c(C)cccc1C` [LI-0, reference compound], the IC50 – broadly, the point on the concentration scale where inhibition reaches its midpoint – on cathepsin L (setting [8]) is greater than 1000 µM; on cathepsin B (read-out: Cathepsin B IC50, at 30 min), greater than 1000 µM; at recombinant legumain, 0.704 µM; at caspase-3, 2.8 µM. The figures for the “Legumain kobs/[I] (second-order rate constant)” value on recombinant legumain and on recombinant legumain (listed as LI-O) were 1586 M⁻¹ s⁻¹ and 1585 M⁻¹ s⁻¹, respectively.
In the case of `CCOC(=O)[C@@H]1O[C@H]1C(=O)N(CC(N)=O)NC(=O)C1CCCN1C(C)=O` (stereo partly drawn) [LI-1], the figures for the IC50 on cathepsin L (setting [8]), at recombinant legumain and on caspase-3 were 220 µM, 0.0115 µM and 890 µM, respectively. Besides, the “Legumain kobs/[I] (second-order rate constant)” value on recombinant legumain was 72350 M⁻¹ s⁻¹ and 72352 M⁻¹ s⁻¹. In addition, the “potency and rate of legumain inhibition, comparison of inhibitors” value at recombinant legumain (FIG. 18) was “greater potency and rate than either Li-2 or LI-0”. Moreover, the “inhibitory effect against other enzymes” value in [1] was “no inhibitory effect”.
Take `CCOC(=O)/C=C/C(=O)N(CC(N)=O)NC(=O)[C@@H]1CCCN1C(C)=O` [LI-2]: in experiment [1] (FIG. 18), the selectivity for legumain result is given as “most selective for legumain”. Besides, the “inhibitory effect against other enzymes” value in experiment [1] was “no inhibitory effect”.
For the compound `CC[N+]1=C(/C=C/C=C/C=C2/N(CCCCCC(=O)NCCCCCC(=O)N3CCC[C@H]3C(=O)N[C@@H](CC(=O)O)C(=O)COC(=O)c3c(C)cccc3C)c3ccc(S(=O)(=O)O)cc3C2(C)C)C(C)(C)c2cc(S(=O)(=O)O)ccc21` [LP-0, reference compound], the “labeling of active legumain” value at legumain [2] was “selectively labeled active legumain”. In addition, the “cross reactivity towards lysosomal cathepsins” value in the experiment with cathepsins [3] is given as “some degree of cross reactivity towards lysosomal cathepsins”.
As for `CCOC(=O)C1OC1C(=O)N(CC(N)=O)NC(=O)C1CCCN1C(=O)CCCCCNC(=O)CCCCCN1C(=CC=CC=CC2=[N+](CC)c3ccc(S(=O)(=O)O)cc3C2(C)C)C(C)(C)c2cc(S(=O)(=O)O)ccc21` (stereo not drawn) [LP-1], at legumain [2], the “labeling of active legumain” value was “selectively labeled active legumain”. For the same compound, the “labeling of active legumain” value on legumain [2] (listed as LP-I) is recorded as “labeled active legumain more efficiently than LP-0 at low probe concentrations”. Further, the “legumain labeling in tumors, organ distribution and cathepsin cross reactivity” value on legumain [4] (ex vivo organs and SDS-PAGE of lysates) is on record as “the most legumain labeling in tumors as well as the highest levels of legumain-specific fluorescent signal”. In addition, the “selectivity of legumain labeling in vivo” value on legumain [4] (organ extracts, SDS-PAGE) is “remarkably selective toward legumain in vivo and showed virtually no off-target labeling”. The reactivity towards legumain result at legumain [5] is recorded as “no difference in reactivity towards legumain”. For the same compound, in the experiment on cathepsins [3], the labeling of cathepsins entry is reported as “labeled cathepsins only at high concentrations or when legumain activity is suppressed” and the “cross reactivity towards lysosomal cathepsins” value is given as “some degree of cross reactivity towards lysosomal cathepsins”. Also, at legumain [6], the “accumulation / selective uptake in tumor” value is given as “rapidly accumulated in tumor tissues”, the “time after which specific legumain signal was reduced to background levels” value worked out at 120 min and the “time of maximum tumor signal to background ratio” value is reported as “around 90 min”. The inhibition of cathepsins entry with cathepsins [7] is “equally poor inhibitors of the cathepsins”.
`CCOC(=O)/C=C/C(=O)N(CC(N)=O)NC(=O)[C@@H]1CCCN1C(=O)CCCCCNC(=O)CCCCCN1/C(=C/C=C/C=C/C2=[N+](CC)c3ccc(S(=O)(=O)O)cc3C2(C)C)C(C)(C)c2cc(S(=O)(=O)O)ccc21` [LP-2]: the labeling of cathepsins entry with cathepsins [3] is listed as “did not label any cathepsins at high concentrations”.
